Reference: patent publication US9149038B2, “4-amino-6-(heterocyclic)picolinates and 6-amino-2-(heterocyclic)pyrimidine-4-carboxylates and their use as herbicides” (Dow AgroSciences LLC, priority 2013, dated 2015)
Like-named read-outs stand apart in the source and are kept apart here.

How the values were obtained:
[1] = test system: Key Grass and Sedge Weeds as well as Grass Crops; experiment: Post-Emergent Test II: postemergent herbicidal activity, visual rating after 14 d (Table 8); type: in vivo; settings: post-emergence, 336 h; for pest or weed control at 35 g/ha: 35 g ai/ha; for pest or weed control at 70 g/ha: 70 g ai/ha; for pest or weed control at 140 g/ha: 140 g ai/ha
Summary of the method: (§1)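 Post-emergence foliar spray, 187 L/ha, first/second true leaf stage plants in potting mix (pH 6.0-6.8). Rates: top rate and 2-fold serial dilutions to 1/16×. Solvent-blank controls. Readout: visual % kill at 14 d.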

[2] = test system: Key Broadleaf Weed and Crop Species; experiment: Post-Emergent Test II: postemergent herbicidal activity, visual rating after 14 d (Table 7); type: in vivo; settings: post-emergence, 336 h; for pest or weed control at 35 g/ha: 35 g ai/ha; for pest or weed control at 70 g/ha: 70 g ai/ha; for pest or weed control at 140 g/ha: 140 g ai/ha
Summary of the method: as §1

[3] = barnyardgrass (Echinochloa crus-galli), read-out: Visual Growth Reduction (%) 14 Days After Application ECHCG
[4] = giant foxtail (Setaria faberi), read-out: Visual Growth Reduction (%) 14 Days After Application SETFA
[5] = maize, corn (Zea mays), read-out: Visual Growth Reduction (%) 14 Days After Application ZEAMX
[6] = rice (Oryza sativa), read-out: Visual Growth Reduction (%) 14 Days After Application ORYSA
[7] = wheat, spring (Triticum aestivum), read-out: Visual Growth Reduction (%) 14 Days After Application TRZAS
[8] = yellow nutsedge (Cyperus esculentus), read-out: Visual Growth Reduction (%) 14 Days After Application CYPES
[9] = lambsquarters (Chenopodium album), read-out: Visual Growth Reduction (%) 14 Days After Application CHEAL
[10] = oilseed rape, canola (Brassica napus), read-out: Visual Growth Reduction (%) 14 Days After Application BRSNN
[11] = redroot pigweed (Amaranthus retroflexus), read-out: Visual Growth Reduction (%) 14 Days After Application AMARE
[12] = sunflower (Helianthus annuus), read-out: Visual Growth Reduction (%) 14 Days After Application HELAN
[13] = velvetleaf (Abutilon theophrasti), read-out: Visual Growth Reduction (%) 14 Days After Application ABUTH
[14] = wild poinsettia (Euphorbia heterophylla), read-out: Visual Growth Reduction (%) 14 Days After Application EPHHL

SMILES | pest or weed control at 35 g/ha [1, 3] [%] | pest or weed control at 70 g/ha [1, 3] [%] | pest or weed control at 140 g/ha [1, 3] [%] | pest or weed control at 35 g/ha [1, 4] [%] | pest or weed control at 70 g/ha [1, 4] [%] | pest or weed control at 140 g/ha [1, 4] [%] | pest or weed control at 35 g/ha [1, 5] [%] | pest or weed control at 70 g/ha [1, 5] [%] | pest or weed control at 140 g/ha [1, 5] [%] | pest or weed control at 35 g/ha [1, 6] [%] | pest or weed control at 70 g/ha [1, 6] [%] | pest or weed control at 140 g/ha [1, 6] [%] | pest or weed control at 35 g/ha [1, 7] [%] | pest or weed control at 70 g/ha [1, 7] [%] | pest or weed control at 140 g/ha [1, 7] [%] | pest or weed control at 35 g/ha [1, 8] [%] | pest or weed control at 70 g/ha [1, 8] [%] | pest or weed control at 140 g/ha [1, 8] [%] | pest or weed control at 35 g/ha [2, 9] [%] | pest or weed control at 70 g/ha [2, 9] [%] | other results
COc1c(C(=O)O)nc(-c2ccc3c(c2)OC(F)(F)O3)c(F)c1N [Compound 25] | 85 to 94 | 85 to 94 | 95 to 100 | 45 to 59 | 60 to 74 | 60 to 74 | 60 to 74 | 75 to 84 | 75 to 84 | 0 to 29 | 30 to 44 | 60 to 74 | 45 to 59 | 45 to 59 | 60 to 74 | 95 to 100 | 95 to 100 | 95 to 100 | 0 to 29 | 0 to 29 | pest or weed control at 140 g/ha [2, 9]: 45 to 59%; pest or weed control at 35 g/ha [2, 10]: 75 to 84%; pest or weed control at 70 g/ha [2, 10]: 95 to 100%; pest or weed control at 140 g/ha [2, 10]: 95 to 100%; pest or weed control at 35 g/ha [2, 11]: 0 to 29%; pest or weed control at 70 g/ha [2, 11]: 0 to 29%; pest or weed control at 140 g/ha [2, 11]: 0 to 29%; pest or weed control at 35 g/ha [2, 12]: 0 to 29%; pest or weed control at 70 g/ha [2, 12]: 0 to 29%; pest or weed control at 140 g/ha [2, 12]: 0 to 29%; pest or weed control at 35 g/ha [2, 13]: 45 to 59%; pest or weed control at 70 g/ha [2, 13]: 60 to 74%; pest or weed control at 140 g/ha [2, 13]: 75 to 84%; pest or weed control at 35 g/ha [2, 14]: 95 to 100%; pest or weed control at 70 g/ha [2, 14]: 95 to 100%; pest or weed control at 140 g/ha [2, 14]: 95 to 100%
COC(=O)c1nc(-c2cc3c(cc2F)OCO3)cc(N)c1Cl [Compound 45] | 75 to 84 | 75 to 84 | 85 to 94 | 60 to 74 | 60 to 74 | 85 to 94 | 45 to 59 | 60 to 74 | 75 to 84 | 45 to 59 | 60 to 74 | 60 to 74 | 30 to 44 | 45 to 59 | 60 to 74 | 30 to 44 | 30 to 44 | 60 to 74 | 85 to 94 | 95 to 100 | pest or weed control at 140 g/ha [2, 9]: 95 to 100%; pest or weed control at 35 g/ha [2, 10]: 75 to 84%; pest or weed control at 70 g/ha [2, 10]: 95 to 100%; pest or weed control at 140 g/ha [2, 10]: 95 to 100%; pest or weed control at 35 g/ha [2, 11]: 95 to 100%; pest or weed control at 70 g/ha [2, 11]: 95 to 100%; pest or weed control at 140 g/ha [2, 11]: 95 to 100%; pest or weed control at 35 g/ha [2, 12]: 60 to 74%; pest or weed control at 70 g/ha [2, 12]: 60 to 74%; pest or weed control at 140 g/ha [2, 12]: 75 to 84%; pest or weed control at 35 g/ha [2, 13]: 95 to 100%; pest or weed control at 70 g/ha [2, 13]: 95 to 100%; pest or weed control at 140 g/ha [2, 13]: 95 to 100%; pest or weed control at 35 g/ha [2, 14]: 75 to 84%; pest or weed control at 70 g/ha [2, 14]: 85 to 94%; pest or weed control at 140 g/ha [2, 14]: 95 to 100%
